Reference: patent publication US5374623A, “Cysteine protease inhibitors effective for in vivo use” (Prototek, Inc., priority 1992, dated 1994)

Assays:
[1] = molecular target: T1, Cathepsin B purified from human liver (Homo sapiens, UniProt P07858); assay: Cathepsin B inhibition, potency relative to Z-Phe-Ala-CH2 F; type: biochemical; settings: substrate Z-Leu-Arg-Arg-AFC, pH 6.2, inhibitor added 2 min before substrate
T1 construct: Cathepsin B. purified from human liver; purchased Enzyme Systems Products (Dublin, Calif.); host or cells: human liver (tissue-purified)
Method: Cathepsin B. purified from human liver, was obtained from Enzyme Systems Products (Dublin, Calif.). The activity of the enzyme used in this Example was 50 mU per ml at 30° C. in 50 mm sodium phosphate buffer, pH 6.2, 5 mm DTT, 2 mm EDTA, with Z-Leu-Arg-Arg-7-amino-4-trifluoromethyl courmarin (Z-Leu-Arg-Arg-AFC) as substrate.
Cathepsin B assays were done under the following conditions: Five μl of enzyme stock solution was preincubated with 435 μl of phosphate buffer for 30 minutes to activate the enzyme. Nine μl of 20 mm stock substrate solution (in dimethylformamide) were added and mixed with the activated enzyme. Activity was followed by the release of free AFC as monitored by a Perkin-Elmer LS-5B spectrofluorometer (excitation=400 nm, emission=505 nm).
The inhibitors described herein were prepared in 20 mm stock solutions in DMF. Five μl aliquots of each inhibitor were added to the enzyme 2 min before the substrate was added to the mix. Potency was determined relative to the activity of a standard cathepsin B inhibitor, Z-Phe-Ala-CH2 F (relative potency of 1.0).

[2] = tested on: bone resorption; assay: In vivo bone resorption by urinary 14C-tetracycline excretion in rats
Method: Treatment of Osteo Arthritis with Mu-Phe-HPhe-O-Ph. The skeletons of young growing rats were radioactively labelled by injections with ^14 C-tetracycline over a 10 day period. The amount of bone resorption was then determined each day as the amount of radioactivity excreted in the urine. After 10 days of control excretion, test compounds were administered for three days subcutaneously and their effects on the daily excretion of tetracycline were determined. Tested compounds were dissolved in DMSO/PEG at a concentration of 25 mg/ml and were injected once per day subcutaneously in a volume of 2 ml/kg. Treatment of Osteo Arthritis with Mu-Leu-HPhe-O-Ph. The skeletons of young growing rats were radioactively labelled by injections with ^14 C-tetracycline over a 10 day period. The amount of bone resorption was then determined each day as the amount of radioactivity excreted in the urine. After 10 days of control excretion, test compounds were administered for three days subcutaneously and their effects on the daily excretion of tetracycline were determined. Tested compounds were dissolved in DMSO/PEG at a concentration of 25 mg/ml and were injected once per day subcutaneously in a volume of 2 ml/kg.

[3] = tested on: 45Ca2+-labelled bones (calvaria) of neonatal mice; assay: Parathyroid hormone-stimulated 45Ca2+ release from cultured mouse calvaria; type: cell-based; settings: for inhibition of the rate of 45Ca2+-release: 1 μm inhibitor; for inhibition of the rate of 45Ca2+-release / additional inhibition of the rate of 45Ca2+-release: 24 hour period, PTH-stimulated; for additional inhibition of the rate of 45Ca2+-release: 100 μm inhibitor
Method: (§1) Treatment of Osteo Arthritis with Mu-Phe-HPhe-O-Ph. ^45 Ca^2+ -labelled bones (calvaria) of neonatal mice were maintained in culture. The effect of the test compound on the rate of parathyroid hormone-stimulated ^45 Ca^2+ release was measured over a 24 hour period. An inhibitor of bone resorption (at maximal concentrations) would be expected to inhibit this rate by approximately 70%. The nature of the residual, uninhibitable ^45 Ca^2+ -release is not known but could represent chemical exchange of ^45 Ca^2+ with the medium. Mu-Phe-HPhe-O-Ph was dissolved in dimethylsulphoxide which was present in the incubation at concentrations <0.1%.
as §1, with “Mu-Leu-HPhe-O-Ph.” for “Mu-Phe-HPhe-O-Ph.”, “Mu-Leu-HPhe-O-Ph” for “Mu-Phe-HPhe-O-Ph”
as §1, with “Mu-Tyr(OMe)-HPhe-O-Ph.” for “Mu-Phe-HPhe-O-Ph.”, “Mu-Tyr(OMe)-HPhe-O-Ph” for “Mu-Phe-HPhe-O-Ph”
as §1, with “Z-Phe-Ala-O-Ph.” for “Mu-Phe-HPhe-O-Ph.”, “Z-Phe-Ala-O-Ph” for “Mu-Phe-HPhe-O-Ph”
as §1, with “Mu-Tyr(OMe)-HPhe-O-Ph.” for “Mu-Phe-HPhe-O-Ph.”, “labelled” for “-labelled”, “Mu-Tyr(OMe)-HPhe-O-Ph” for “Mu-Phe-HPhe-O-Ph”

[4] = molecular target: Soluble extracts of P. falciparum (cysteine proteinase); assay: Proteolytic activity of P. falciparum soluble extracts, substrate Z-Phe-Arg-AFC; type: biochemical; settings: read-out: IC50, proteolytic activity of P. falciparum extract
Method: Soluble extracts of P. falciparum and P. vinckei were prepared and proteolytic activity was assayed with fluorogenic peptide substrate Z-Phe-Arg-AFC. […] The concentrations at which activity was inhibited by 50% (IC50) was calculated.
Soluble extracts of P. falciparum and P. vinckei were prepared and proteolytic activity was assayed with fluorogenic peptide substrate Z-Phe-Arg-AFC. […] The concentration at which activity was inhibited by 50%. (IC50) was calculated.
Soluble extracts of P. falciparum and P. vinckei were prepared and proteolytic activity was assayed with fluorogenic peptide substrate Z-Phe-Arg-AFC. […] The concentration at which activity was inhibited by 50% (IC50) was calculated.
The concentration at which activity was inhibited by 50% (IC50) was calculated.

[5] = tested on: Soluble extracts of P. vinckei; assay: Proteolytic activity of P. vinckei soluble extracts, substrate Z-Phe-Arg-AFC; type: biochemical; settings: read-out: IC50, proteolytic activity of P. vinckei extract
Method: (§2) Treatment of Malaria with Mu-Phe-HPhe-O-Ph. Soluble extracts of P. falciparum and P. vinckei were prepared and proteolytic activity was assayed with fluorogenic peptide substrate Z-Phe-Arg-AFC. The activity of control samples was compared with activities in the presence of multiple concentrations of Mu-Phe-HPhe-O-Ph. The concentrations at which activity was inhibited by 50% (IC50) was calculated.
as §2, with “with Mu-Leu-HPhe-O-Ph.” for “with Mu-Phe-HPhe-O-Ph.”, “of Mu-Leu-HPhe-O-Phe.” for “of Mu-Phe-HPhe-O-Ph.”, “The concentration” for “The concentrations”, “by 50%.” for “by 50%”
as §2, with “with Mu-Phe-Arg(NO2)-O-Ph.” for “with Mu-Phe-HPhe-O-Ph.”, “of Mu-Phe-Arg(NO2)-O-Ph.” for “of Mu-Phe-HPhe-O-Ph.”, “The concentration” for “The concentrations”
as §2, with “with Mu-Tyr(OCH3)2 -HPhe-O-Ph.” for “with Mu-Phe-HPhe-O-Ph.”, “samples as” for “samples was”, “of Mu-Tyr(OCH3)2 -HPhe-O-Ph.” for “of Mu-Phe-HPhe-O-Ph.”, “The concentration” for “The concentrations”

[6] = tested on: adjuvant-induced arthritis; assay: Adjuvant-induced arthritis in rats, compound in ground diet (Example 15); type: in vivo; settings: day 0 to day 32
Method: Treatment of Rheumatoid Arthritis with Mu-Tyr(OMe)-HPhe-O-Ph. Rats were injected with adjuvant on day 0 and were treated with Mu-Tyr(OMe)-HPhe-O-Ph in ground diet from the time of adjuvant injection until sacrifice at day 32. Over the course of the disease, animals were evaluated in terms of a mean clinical score, a derived series of clinically observed parameters normalized to facilitate graphical presentation. Mean paw volumes were also measured using normalized units throughout the course of the disease. At the end of the study, the animal groups were sacrificed and evaluated by X-ray analysis.

COC(=O)c1ccccc1OCC(=O)C(C)(C)NC(=O)C(Cc1ccccc1)NC(=O)N1CCOCC1 (stereo not shown) [Example 9, Morpholine carbonyl phenylalanyl 2-aminoisobutyric methyl phenoxy ketone]
relative potency of cathepsin B inhibition (Z-Phe-Ala-CH2 F = 1.0) [1]: 0.2

CC(C)C[C@H](NC(=O)N1CCOCC1)C(=O)N[C@@H](CCc1ccccc1)C(=O)COc1ccccc1 [Mu-Leu-HPhe-O-Ph]
inhibition of bone resorption in vivo as measured by tetracycline excretion ([2]; subcutaneous once per day for three days, 25 mg/ml in DMSO/PEG, 2 ml/kg): nearly as great as that of a maximal dose of calcitonin | time of maximum effect after dosing commenced ([2]; subcutaneous once per day, 25 mg/ml, 2 ml/kg): 24 h | findings at the sites of injection at end of experiment ([2]; subcutaneous, DMSO/PEG, three days, histology: inflammation of subcutaneous fat, tissue necrosis): lesions were visible at the sites of injection | inhibition of the rate of 45Ca2+-release [3]: 50% | additional inhibition of the rate of 45Ca2+-release [3]: 20% | IC50 [4]: 0.42 nM | IC50 [5]: 15 nM

NC(=NCCCC(NC(=O)C(Cc1ccccc1)NC(=O)N1CCOCC1)C(=O)COc1ccccc1)N[N+](=O)[O-] (stereo not shown) [Mu-Phe-Arg(NO2)-O-Ph]
IC50 [4]: 2.4 nM | IC50 [5]: 110 nM

COc1ccc(C[C@H](NC(=O)N2CCOCC2)C(=O)N[C@@H](CCc2ccccc2)C(=O)COc2ccccc2)cc1 [Mu-Tyr(OMe)-HPhe-O-Ph]
mean clinical scores vs untreated animals [6]: significantly lower | mean paw volumes vs untreated animals [6]: significantly reduced | inhibition of the rate of 45Ca2+-release [3]: 50% | additional inhibition of the rate of 45Ca2+-release [3]: 20% | IC50 ([3]; initial phase of inhibition, read-out: IC50 for inhibition of resorption in mouse calvaria): ~40 nM

C[C@H](NC(=O)[C@H](Cc1ccccc1)NC(=O)OCc1ccccc1)C(=O)CF [Z-Phe-Ala-CH2 F, reference compound]
relative potency of cathepsin B inhibition (Z-Phe-Ala-CH2 F = 1.0) [1]: 1.0

CC(NC(=O)C(Cc1ccccc1)NC(=O)OCc1ccccc1)C(=O)COc1ccccc1 (stereo not drawn) [Z-Phe-Ala-O-Ph]
inhibition of the rate of 45Ca2+-release [3]: 50% | additional inhibition of the rate of 45Ca2+-release [3]: 20%

t-Butyl carbamyl-L-arginyl-(2-Carboxymethyl) phenoxymethyl ketone [Example 3]
relative potency of cathepsin B inhibition (Z-Phe-Ala-CH2 F = 1.0) [1]: five
